Assay results taken from patent US8871919B2, “RNAi therapeutic for treatment of Hepatitis C infection” (Florida State University Research Foundation, priority 2007, dated 2014).
“Also recorded” adds a separate entry of the source.

How the values were obtained:
HCV = details: cited from earlier work
CyPA [1] = assay: CyPA expression in GS5 cells (Western blot); format: cell-based, human
Method: (§1) A human immunodeficiency virus (HIV)-based lentiviral vector is used to express all of the short hairpin RNAs (shRNAs). […] Target or sense sequences for the other shRNAs are as follows:
(§2) The above sequences may be converted to RNA sequences by changing each thymine (T) to uracil (U). Lentiviral vector production and transduction are performed as described previously (44). Stable cells expressing shRNAs are obtained by selection with 1 μg/ml of puromycin (MP Biomedicals, Solon, Ohio) for 3 weeks.

CyPA [2] = assay: CyPA expression in RS2 cells (Western blot); format: cell-based, human; details: RS2 cells stably expressing shRNA (FIG. 3B)
Method: as §1, §2

RS2 replicon cells [3] = assay: NS5A-GFP expression in RS2 cells by FACS; format: cell-based, Hepatitis C virus
Excerpt: In contrast to the GS5 replicon, RS2 replicates efficiently in the presence of substantial CyPA knock-down (FIG. 1D).

[4] = system: Con1 (GT 1b) replicon cells; assay: NS5A expression in Con1 (GT 1b) replicon cells, transient transduction; format: cell-based, Hepatitis C virus; details: transient transduction (FIG. 4D)
Excerpt: (§3) FIG. 4D is an image of Western blots showing expression of the proteins NS5A, CyPB, and CyPA in H77 (GT 1a) and Con1 (GT 1b) replicon cells transduced with the indicated shRNAs (sh-Luc or sh-A161);

[5] = system: vesicular stomatitis virus; format: cell-based; details: sh-A159 Huh-7.5 cells (FIG. 5D)
[6] = system: H77 (GT 1a) replicon cells; assay: NS5A expression in H77 (GT 1a) replicon cells, transient transduction; format: cell-based, Hepatitis C virus; details: transient transduction (FIG. 4D)
Excerpt: as §3

Rep1b RNA = details: day 4 vs 7 hours after electroporation (FIG. 2E)
Method: A parallel electroporation of Rep1b RNA into Huh-7.5/sh-Luc cells serves as a positive control, which is set at 100%;
One microgram of replicon RNA is mixed with 9 μg of a pcDNA3.1-based plasmid containing no insert, CyPA cDNA, CyPB cDNA, or CyPC cDNA and used in a standard electroporation (36). RNA is extracted 7 h and 4 days post-electroporation and subjected to quantitative RT-PCR analysis to detect HCV RNA as described previously (See, e.g., Robida, J. M et al., Characterization of hepatitis C virus subgenomic replicon resistance to cyclosporine in vitro, J. Virol., 81:5829-5840 (2007). All the CyP cDNAs are tagged with a Myc epitope at the C terminus, and the CyPA cDNA containing silent mutations in the sh-A159 recognition site is designated CyPA#.

GS5 replicon cells [7] = assay: NS5A expression in GS5 replicon cells (Western blot); format: cell-based, Hepatitis C virus; details: for NS5A expression: GS5 cells
GS5 replicon cells [8] = assay: Colony formation assay, puromycin and G418 double selection, GS5 cells; format: cell-based, Hepatitis C virus
[9] = system: GT 1b (Con1) subgenomic replicon; assay: Colony formation in stable Huh-7.5 cells electroporated with GT 1b (Con1) replicon RNA; format: cell-based, Hepatitis C virus; details: stable Huh-7.5 cells (FIG. 4C)
Excerpt: (§4) FIG. 4C is an image of plates containing stained Huh-7.5 cells transduced with several shRNAs (sh-Luc, sh-A159, sh-B710, or sh-C454) after four weeks following electroporation with one microgram of either H77 (GT 1a) or Con1 (GT 1b) replicons;
(§5) GS5 and RS2 cells contain GT 1b replicons with the GFP gene inserted into the NS5A region. (See, e.g., Moradpour, D. et al., “Insertion of green fluorescent protein into nonstructural protein 5A allows direct visualization of functional hepatitis C virus replication complexes,” J. Virol. 78:7400-7409 (2004); Nelson, H. B. et al., “Effect of cell growth on hepatitis C virus (HCV) replication and a mechanism of cell confluence-based inhibition of HCV RNA and protein expression,” J. Virol. 80:1181-1190 (2006)). Next the effect of CyPA knock-down on replicons without GFP is examined. Both GT 1a and 1b replicons are tested. To this end, stable Huh-7.5 cell lines are established that express the various shRNAs and then challenges them, by electroporation, with in vitro-transcribed GT 1a (H77) and 1b (Con1) subgenomic replicon RNAs. The shRNAs effectively silence the expression of their respective targets in the stable cells as expected (FIGS. 4A and 4B). No defect in morphology or growth rate is detected for any of the stable cell lines, confirming that these CyPs are dispensable for cell survival in vitro.

[10] = system: GT 1a (H77) subgenomic replicon; assay: Colony formation in stable Huh-7.5 cells electroporated with GT 1a (H77) replicon RNA; format: cell-based, Hepatitis C virus; details: stable Huh-7.5 cells (FIG. 4C)
Excerpt: as §4, §5

HCVcc/JFH-1 = HCVcc/JFH-1 infection of Huh-7.5 cells; format: cell-based, Hepatitis C virus
Excerpt: FIG. 5A is an image of an RNA gel showing HCV IRES RNA levels relative to cellular RNA helicase A (RHA) RNA in total RNA extracts from Huh7.5 cells transduced with several shRNAs (sh-Luc, sh-A159, or sh-B710) following infection with HCVcc/JFH-1 for nine days;
FIG. 5B is a fluorescence microscopy image showing anticore antibody and DAPI (4′,6′-diamidino-2-phenylindole) staining of paraformaldehyde fixed Huh7.5 cells transduced with either sh-Luc or sh-A159 following infection with HCVcc/JFH-1 for nine days;
FIG. 5C is an image of Western blots showing expression of the proteins NS3, GAPDH, and CyPA in total protein extracts from Huh7.5 cells transduced with the indicated shRNAs (sh-Luc or sh-A159) at 0, 9, or 12 days after infection with HCVcc/JFH-1 replicons; […]
Full-length JFH-1 cDNA is provided by Takaji Wakita. Production of infectious HCVcc and infection of Huh-7.5 cells are performed as described previously (See, e.g., Zhong, J. et al., “Robust hepatitis C virus infection in vitro,” Proc. Natl. Acad. Sci. USA, 102:9294-9299 (2005)). Western blotting and immunostaining of infected cells are carried out according to standard methods.

RS2 replicon cells [11] = assay: Colony formation assay, puromycin and G418 double selection, RS2 cells; format: cell-based, Hepatitis C virus
RS2 replicon cells [12] = assay: NS5A expression in CsA-resistant RS2 replicon cells (Western blot); format: cell-based, Hepatitis C virus; details: lentiviral shRNA, 7 days
[13] = synthesized siRNA duplex, transient transfection (FIG. 2C)

alpha-interferon and ribavirin
sustained efficacy, share of patients (HCV): 40%

sh-A159: shRNA against CyPA; sense sequence nucleotides 159 through 179 of human CyPA cDNA, hairpin UUCAAGAGA (SEQ ID NO: 3) (AAGGGUUCCUGCUUUCACAGAUUCAAGAGAUCUGUGAAAGCAGGAACCCUU)
CyPA expression (CyPA [1]; lentiviral shRNA, 7 days (FIG. 2B)): knock down CyPA expression; also recorded: most effective | CyPA expression (CyPA [2]): substantial suppression | suppression of NS5A-GFP expressing RS2 cells (RS2 replicon cells [3]; no selection, 0.5 μg/ml CsA, FACS (FIG. 3C)): no significant suppression | sensitivity of RS2 replicon to CsA relative to RS2/sh-Luc (RS2 replicon cells [3]; stable RS2 cells, CsA 4 days, FACS (FIG. 3A)): six to eight times more sensitive | NS5A expression [4]: inhibitory effect | susceptibility to infection by vesicular stomatitis virus [5]: fully susceptible | NS5A expression [6]: inhibitory effect | HCV RNA replication with sh-A159-insensitive CyPA cDNA (Myc-A#) (Rep1b RNA): partially rescued | NS5A expression (GS5 replicon cells [7]; lentiviral shRNA, 7 days): inhibits NS5A expression; also recorded: most effective | NS5A expression with sh-A159-insensitive CyPA cDNA (Myc-A#) (GS5 replicon cells [7]; replicon cells, sh-A159 together with Myc-A# (FIG. 2D)): partially rescued | number of double-resistant colonies (GS5 replicon cells [8]): significantly lower number | ability of replicon RNA to form colonies [9]: completely inhibits | ability of replicon RNA to form colonies [10]: completely inhibits | HCV infection of stable shRNA cells (HCVcc/JFH-1; Huh-7.5, HCVcc/JFH-1, RT-PCR, core staining, NS3 Western blot): highly refractory to infection | viral replication (NS3 expression) in an existing infection (HCVcc/JFH-1; Huh-7.5 infected with JFH-1 for 10 days, then transduced, NS3 measured 7 days after transduction): suppresses viral replication | number of double-resistant colonies (RS2 replicon cells [11]): not observed

sh-C454: shRNA directed at CyPC, nucleotides 454-474 of human CyPC cDNA (SEQ ID NO: 10) (AAGACTGAAGGTGTGCTGGTA) [reference compound]
NS5A expression (RS2 replicon cells [12]): no effect | NS5A expression (GS5 replicon cells [7]; lentiviral shRNA, 7 days): no effect

si-A159: synthesized siRNA duplex form of sh-A159 (sense SEQ ID NO: 2, antisense SEQ ID NO: 4) (sense AAGGGUUCCUGCUUUCACAGA; antisense UCUGUGAAAGCAGGAACCCUU; listed as RNA, chemistry not given here)
CyPA expression (CyPA [1]; [13]): inhibited; also recorded: no more potent than si-A285 | NS5A expression (GS5 replicon cells [7]; [13]): inhibited
